Results taken from the NIST ThermoML archive (doi:10.1021/je100256w).

Assay: cn = amount concentration of the nth substance listed, in mol/dm3
Conditions: 101 kPa, Liquid, Dip Cell

O=C([O-])c1ccccc1O.[Na+] [sodium salicylate] + O
electrical conductivity [S/m]
Conditions	298 K	303 K	308 K	313 K
c1 = 3.09e-05	2.48e-05	2.4e-05	2.71e-05	3.69e-05
c1 = 6.1e-05	4.76e-05	4.74e-05	5.24e-05	6.8e-05
c1 = 9.04e-05	6.66e-05	6.95e-05	7.56e-05	9.61e-05
c1 = 0.000119	8.34e-05	8.73e-05	9.64e-05	0.000122
c1 = 0.000147	0.000102	0.000107	0.000118	0.000149
c1 = 0.0001744	0.000118	0.000125	0.000136	0.000173
c1 = 0.0002064	0.000135	0.000144	0.000157	0.000197
c1 = 0.0002376	0.000152	0.000163	0.000176	0.000208
c1 = 0.0002778	0.000173	0.000185	0.0002	0.000237
c1 = 0.0003166	0.000192	0.000203	0.000209	0.000264
c1 = 0.0003541	0.000204	0.00021	0.000228	0.000286
c1 = 0.0003903	0.00021	0.000227	0.000248	0.000309
c1 = 0.0004339	0.000226	0.000248	0.00027	0.000327
c1 = 0.0004757	0.000244	0.000266	0.00029	0.000363
c1 = 0.0005237	0.000261	0.000288	0.000315	0.000393
c1 = 0.0005695	0.000281	0.000307	0.000338	0.000419
c1 = 0.0006132	0.000297	0.000325	0.000357	0.000441
c1 = 0.000655	0.000311	0.000342	0.000373	0.000463
c1 = 0.0007014	0.000322	0.00036	0.000394	0.000486
c1 = 0.0007517	0.000344	0.000378	0.000412	0.000511
c1 = 0.0007993	0.00036	0.000395	0.000434	0.000533
c1 = 0.0008444	0.000373	0.000409	0.000457	0.000547
c1 = 0.0008974	0.000389	0.000422	0.000482	0.000572
c1 = 0.0009472	0.000401	0.000448	0.000502	0.000592
c1 = 0.001003	0.000417	0.000459	0.000527	0.000614
c1 = 0.001063	0.000433	0.000483	0.000551	0.000635
c1 = 0.001123	0.00045	0.000492	0.000561	0.000656
c1 = 0.001181	0.000464	0.000515	0.000594	0.000674
c1 = 0.001241	0.000474	0.000535	0.000613	0.000692
c1 = 0.001301	0.000494	0.000552	0.000631	0.000712

Cc1ccc(S(=O)(=O)[O-])cc1.[Na+] [sodium p-toluenesulfonate] + O
electrical conductivity [S/m]
Conditions	298 K	303 K	308 K	313 K
c1 = 1.98e-05	1.97e-05	1.898e-05	2.03e-05	2.26e-05
c1 = 3.92e-05	3.417e-05	3.49e-05	3.87e-05	4.25e-05
c1 = 5.83e-05	4.83e-05	5.03e-05	5.5e-05	6.1e-05
c1 = 7.69e-05	6.1e-05	6.43e-05	7.18e-05	7.97e-05
c1 = 9.52e-05	7.34e-05	7.77e-05	8.74e-05	9.66e-05
c1 = 0.0001132	8.47e-05	9.1e-05	0.000101	0.000113
c1 = 0.0001308	9.61e-05	0.000104	0.000115	0.000128
c1 = 0.0001481	0.000107	0.000117	0.000127	0.000142
c1 = 0.0001651	0.000117	0.000129	0.00014	0.000156
c1 = 0.0001818	0.000127	0.000139	0.000152	0.000169
c1 = 0.0001982	0.000137	0.000149	0.000164	0.000181
c1 = 0.0002143	0.000147	0.000161	0.000175	0.000194
c1 = 0.0002456	0.000164	0.000179	0.000196	0.000203
c1 = 0.0002609	0.00017	0.000188	0.000192	0.000214
c1 = 0.0002759	0.00018	0.000196	0.000201	0.000224
c1 = 0.0002906	0.0001884	0.000192	0.000209	0.000234
c1 = 0.0003051	0.0001964	0.0002	0.000219	0.000242
c1 = 0.0003193	0.000203	0.000208	0.000228	0.000253
c1 = 0.0003333	0.000196	0.000215	0.000236	0.00026
c1 = 0.0003471	0.000201	0.000222	0.000243	0.000269
c1 = 0.0003673	0.000206	0.000232	0.000254	0.000281
c1 = 0.0003871	0.000219	0.000241	0.000267	0.000293
c1 = 0.0004064	0.000228	0.000251	0.000276	0.000305
c1 = 0.0004252	0.000236	0.000259	0.000286	0.000315
c1 = 0.0004436	0.000242	0.000267	0.000295	0.000326
c1 = 0.0004615	0.000249	0.000274	0.000304	0.000336
c1 = 0.0004791	0.000258	0.000283	0.000313	0.000342
c1 = 0.0004962	0.000265	0.000293	0.000321	0.00035
c1 = 0.000513	0.000271	0.0003	0.00033	0.000359

CCCCCCCCCCCCCCCC[N+](C)(C)CCCCC[N+](C)(C)CCCCCCCCCCCCCCCC.[Br-].[Br-] + O
electrical conductivity [S/m]
Conditions	298 K	303 K	308 K	313 K
c1 = 3.3e-06	6.8e-05	6.9e-05	7e-05	7.1e-05
c1 = 6.6e-06	0.000129	0.000135	0.000148	0.00015
c1 = 9.9e-06	0.00021	0.000219	0.00023	0.000236
c1 = 1.32e-05	0.000279	0.00029	0.000292	0.000308
c1 = 1.64e-05	0.000358	0.000376	0.000385	0.000396
c1 = 1.96e-05	0.000418	0.000432	0.000442	0.000456
c1 = 2.28e-05	0.000495	0.000505	0.000514	0.000519
c1 = 2.6e-05	0.000557	0.000564	0.000579	0.000584
c1 = 2.91e-05	0.000634	0.000646	0.000659	0.000684
c1 = 3.23e-05	0.000684	0.000699	0.000715	0.000732
c1 = 3.54e-05	0.000746	0.000766	0.000779	0.000789
c1 = 3.85e-05	0.000803	0.000816	0.000826	0.00087
c1 = 4.15e-05	0.000873	0.000873	0.000896	0.000945
c1 = 4.46e-05	0.000935	0.000935	0.000956	0.000998
c1 = 4.76e-05	0.001	0.001	0.00101	0.00108
c1 = 5.06e-05	0.00103	0.00105	0.00106	0.00112
c1 = 5.36e-05	0.00109	0.00113	0.00113	0.00115
c1 = 5.66e-05	0.00113	0.00116	0.00116	0.00121
c1 = 5.96e-05	0.00119	0.00122	0.00123	0.00125
c1 = 6.25e-05	0.00123	0.00127	0.00129	0.00129
c1 = 6.54e-05	0.00128	0.00132	0.00135	0.00135
c1 = 6.83e-05	0.00133	0.00137	0.00138	0.0014
c1 = 7.12e-05	0.00137	0.00142	0.00145	0.00144
c1 = 7.41e-05	0.00142	0.00146	0.00147	0.00148
c1 = 7.69e-05	0.00144	0.00149	0.0015	0.00152
